Experiments:
Format in all cases: in vivo
[1] = test system: Galium spurium; assay: Test Example 4: herbicidal effect by soil treatment (symbol Q); details: application herbicide amount 320 g/ha
Summary of the method: (§1)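 Seeds were sown in sterilized diluvial soil, covered with about 1.5 cm of soil, and the soil surface was sprayed with a water-diluted emulsion of the compound at a predetermined rate. Plants grew in a greenhouse at 25° C. to 30° C.; effects were scored visually 3 weeks after application.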

[2] = test system: Scirpus juncoides; assay: Test Example 2: herbicidal activity, application during weed generation in submerged conditions (symbol B); details: Table 23; application herbicide amount 320 g/ha; grade 0-5 by criteria of Test Example 1
Summary of the method: (§2)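 Steps: fill pots with alluvial soil; add water to 4 cm depth; co-sow the three weeds; grow at 25° C. to 30° C. under glass; at 1–2 leaves, dose the floodwater with diluted emulsion; rate damage visually after 3 weeks.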

[3] = test system: Amaranthus retroflexus; assay: Test Example 5: herbicidal effect by foliage application, plastic box (symbol N); details: 320 g/ha, 3 weeks after application
Summary of the method: (§3)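 Effect is rated 3 weeks after a foliar spray of water-diluted emulsion concentrate at a predetermined herbicide amount. Plants had grown 14 days in a 25° C. to 30° C. greenhouse from seed in sterilized diluvial soil.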

[4] = test system: rapeseed; assay: Test Example 5: effect on crop by foliage application, plastic box (symbol g); details: 320 g/ha, 3 weeks after application
Summary of the method: (§4)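 Box culture: sterile diluvial soil, seeds spot-sown, ~1.5 cm cover, raised under glass at 25–30° C.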

[5] = test system: beet; assay: Test Example 5: effect on crop by foliage application, plastic box (symbol f); details: 320 g/ha, 3 weeks after application
Summary of the method: as §4

[6] = test system: Echinochloa oryzacola Vasing.; assay: Test Example 1: herbicidal activity, application before weed generation in submerged conditions (symbol A); details: application herbicide amount 320 g/ha
Summary of the method: (§5)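 Scores run 0 to 5 by herbicidal ratio, with 5 meaning 90% or more and 0 meaning 5% or lower, read 3 weeks after treatment. Compound was applied as a diluted emulsion to the water surface of submerged alluvial-soil pots on the day weed seeds were sown.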

[7] = test system: Echinochloa oryzacola Vasing.; assay: Test Example 2: herbicidal activity, application during weed generation in submerged conditions (symbol A); details: Table 23; application herbicide amount 320 g/ha; grade 0-5 by criteria of Test Example 1
Summary of the method: as §2

[8] = test system: Abutilon theophrasti; assay: Test Example 4: herbicidal effect by soil treatment (symbol M); details: application herbicide amount 320 g/ha
Summary of the method: as §1

[9] = test system: Monochoria vaginalis; assay: Test Example 1: herbicidal activity, application before weed generation in submerged conditions (symbol C); details: application herbicide amount 320 g/ha
Summary of the method: as §5

[10] = test system: Alopecurus myosuroides; assay: Test Example 4: herbicidal effect by soil treatment (symbol J); details: application herbicide amount 320 g/ha
Summary of the method: as §1

[11] = test system: rice; assay: Test Example 4: effect on crop by soil treatment (symbol b); details: application herbicide amount 320 g/ha
Summary of the method: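 The test used sterilized diluvial soil. Seed was set down in spots and overlaid with about 1.5 cm of soil before growth in a greenhouse kept at 25° C. to 30° C.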

[12] = test system: Avena fatua; assay: Test Example 4: herbicidal effect by soil treatment (symbol I); details: application herbicide amount 320 g/ha
Summary of the method: as §1

[13] = test system: Echinochloa crus-galli var. crus-galli; assay: Test Example 5: herbicidal effect by foliage application, plastic box (symbol H); details: 320 g/ha, 3 weeks after application
Summary of the method: as §3

[14] = test system: Monochoria vaginalis; assay: Test Example 2: herbicidal activity, application during weed generation in submerged conditions (symbol C); details: Table 23; application herbicide amount 320 g/ha; grade 0-5 by criteria of Test Example 1
Summary of the method: as §2

[15] = test system: Digitaria ciliaris; assay: Test Example 4: herbicidal effect by soil treatment (symbol F); details: application herbicide amount 320 g/ha
Summary of the method: as §1

[16] = test system: Abutilon theophrasti; assay: Test Example 5: herbicidal effect by foliage application, plastic box (symbol M); details: 320 g/ha, 3 weeks after application
Summary of the method: as §3

SMILES | Q (Galium spurium) herbicidal effect grade [1] | Herbicidal effect grade, B: Scirpus juncoides [2] | N: Amaranthus retroflexus, herbicidal effect grade [3] | g: rapeseed, effect on crop grade [4] | f: beet, effect on crop grade [5] | Herbicidal effect grade, A: Echinochloa oryzacola Vasing. [6] | Herbicidal effect grade, A: Echinochloa oryzacola Vasing. [7] | M (Abutilon theophrasti) herbicidal effect grade [8] | Herbicidal effect grade, C: Monochoria vaginalis [9] | J (Alopecurus myosuroides) herbicidal effect grade [10] | b (directly sowed rice plant) effect on crop grade [11] | I (Avena fatua) herbicidal effect grade [12] | H: Echinochloa crus-galli var. crus-galli, herbicidal effect grade [13] | Herbicidal effect grade, C: Monochoria vaginalis [14] | F (Digitaria ciliaris) herbicidal effect grade [15] | M: Abutilon theophrasti, herbicidal effect grade [16]
CON=C(C)CC1CC(OC(=O)CCC2CCCCC2)=C(c2c(C)cc(C)cc2C)C1=O (stereo not drawn) [1-035] | 0 (Herbicidal ratio of 5% or lower (almost no effect)) | 4 (Herbicidal ratio of 70% or higher and lower than 90%) | 3 (Herbicidal ratio of 40% or higher and lower than 70%) | 4 (Herbicidal ratio of 70% or higher and lower than 90%) | 2 (Herbicidal ratio of 20% or higher and lower than 40%) | 5 (Herbicidal ratio of 90% or more (almost completely withered)) | 5 (Herbicidal ratio of 90% or more (almost completely withered)) | 5 (Herbicidal ratio of 90% or more (almost completely withered)) | 2 (Herbicidal ratio of 20% or higher and lower than 40%) | 5 (Herbicidal ratio of 90% or more (almost completely withered)) | 5 (Herbicidal ratio of 90% or more (almost completely withered)) | 4 (Herbicidal ratio of 70% or higher and lower than 90%) | 5 (Herbicidal ratio of 90% or more (almost completely withered)) | 4 (Herbicidal ratio of 70% or higher and lower than 90%) | 5 (Herbicidal ratio of 90% or more (almost completely withered)) | 4 (Herbicidal ratio of 70% or higher and lower than 90%)
CC(CC1CC(O)=C(c2c(C)cc(C)cc2C)C1=O)=NOCC1CC1 (stereo not drawn) [1-024] | 0 (Herbicidal ratio of 5% or lower (almost no effect)) | 5 (Herbicidal ratio of 90% or more (almost completely withered)) | 0 (Herbicidal ratio of 5% or lower (almost no effect)) | 4 (Herbicidal ratio of 70% or higher and lower than 90%) | 0 (Herbicidal ratio of 5% or lower (almost no effect)) | 5 (Herbicidal ratio of 90% or more (almost completely withered)) | 5 (Herbicidal ratio of 90% or more (almost completely withered)) | 3 (Herbicidal ratio of 40% or higher and lower than 70%) | 2 (Herbicidal ratio of 20% or higher and lower than 40%) | 5 (Herbicidal ratio of 90% or more (almost completely withered)) | 5 (Herbicidal ratio of 90% or more (almost completely withered)) | 4 (Herbicidal ratio of 70% or higher and lower than 90%) | 5 (Herbicidal ratio of 90% or more (almost completely withered)) | 3 (Herbicidal ratio of 40% or higher and lower than 70%) | 5 (Herbicidal ratio of 90% or more (almost completely withered)) | 1 (Herbicidal ratio of 5% or higher and lower than 20%)
CC(CC1CC(O)=C(c2c(C)cc(C)cc2C)C1=O)=NOCC(=O)N1CCOCC1 (stereo not drawn) [1-025] | 0 (Herbicidal ratio of 5% or lower (almost no effect)) | 0 (Herbicidal ratio of 5% or lower (almost no effect)) | 0 (Herbicidal ratio of 5% or lower (almost no effect)) | 4 (Herbicidal ratio of 70% or higher and lower than 90%) | 0 (Herbicidal ratio of 5% or lower (almost no effect)) | 4 (Herbicidal ratio of 70% or higher and lower than 90%) | 1 (Herbicidal ratio of 5% or higher and lower than 20%) | 0 (Herbicidal ratio of 5% or lower (almost no effect)) | 0 (Herbicidal ratio of 5% or lower (almost no effect)) | 4 (Herbicidal ratio of 70% or higher and lower than 90%) | 5 (Herbicidal ratio of 90% or more (almost completely withered)) | 3 (Herbicidal ratio of 40% or higher and lower than 70%) | 4 (Herbicidal ratio of 70% or higher and lower than 90%) | 0 (Herbicidal ratio of 5% or lower (almost no effect)) | 5 (Herbicidal ratio of 90% or more (almost completely withered)) | 1 (Herbicidal ratio of 5% or higher and lower than 20%)
CC(CC1CC(O)=C(c2c(C)cc(C)cc2C)C1=O)=NOCc1ccccc1F (stereo not drawn) [1-026] | 0 (Herbicidal ratio of 5% or lower (almost no effect)) | 3 (Herbicidal ratio of 40% or higher and lower than 70%) | 0 (Herbicidal ratio of 5% or lower (almost no effect)) | 4 (Herbicidal ratio of 70% or higher and lower than 90%) |  | 5 (Herbicidal ratio of 90% or more (almost completely withered)) | 5 (Herbicidal ratio of 90% or more (almost completely withered)) | 0 (Herbicidal ratio of 5% or lower (almost no effect)) | 5 (Herbicidal ratio of 90% or more (almost completely withered)) | 5 (Herbicidal ratio of 90% or more (almost completely withered)) | 4 (Herbicidal ratio of 70% or higher and lower than 90%) | 3 (Herbicidal ratio of 40% or higher and lower than 70%) | 4 (Herbicidal ratio of 70% or higher and lower than 90%) | 3 (Herbicidal ratio of 40% or higher and lower than 70%) | 5 (Herbicidal ratio of 90% or more (almost completely withered)) | 0 (Herbicidal ratio of 5% or lower (almost no effect))

Source: patent US11000033B2, “Ketone or oxime compound, and herbicide” (NISSAN CHEMICAL CORPORATION, priority 2014, dated 2021)
